Active and inactive are the calls of the source. For most assays here, no stated cut-off is given here; in the data, actives have a measured EC50 and inactives only a lower limit.
Key:
Cytochrome P450 1A2 = target: T1, Cytochrome P450 1A2 (Homo sapiens, UniProt P05177);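 further: PubChem cytochrome P450 panel assay, CYP1A2 panel member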
T1 sequence (P05177 whole entry): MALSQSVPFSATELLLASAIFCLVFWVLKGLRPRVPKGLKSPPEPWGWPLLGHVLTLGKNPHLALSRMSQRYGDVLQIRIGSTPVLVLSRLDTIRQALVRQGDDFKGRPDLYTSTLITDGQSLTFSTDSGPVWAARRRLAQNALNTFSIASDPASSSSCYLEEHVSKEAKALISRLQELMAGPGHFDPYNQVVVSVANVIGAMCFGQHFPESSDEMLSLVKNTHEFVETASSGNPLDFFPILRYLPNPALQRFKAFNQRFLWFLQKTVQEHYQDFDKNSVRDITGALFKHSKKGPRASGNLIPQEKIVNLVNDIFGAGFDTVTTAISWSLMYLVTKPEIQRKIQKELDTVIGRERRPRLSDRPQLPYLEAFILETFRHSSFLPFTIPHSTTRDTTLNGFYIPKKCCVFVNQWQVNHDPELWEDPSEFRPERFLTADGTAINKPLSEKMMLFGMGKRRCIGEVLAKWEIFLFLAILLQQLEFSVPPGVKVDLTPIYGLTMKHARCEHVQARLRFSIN

[1] = Luminescence Cell-Based Dose Retest to Confirm Inhibitors of Cancer Stem Cells. [Related pubchem assays (depositor defined):AID2717, AID2721]; assay type: functional; details: Homo sapiens
[2] = target: T2, Heat shock factor protein 1 (Mus musculus, UniProt P38532); experiment: inhibition of MG132-induced HSE-luciferase signal, confirmation, cell-based, NIH3T3, luminescence, dose retest (AID 2382); assay type: functional;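 further: NIH3T3 fibroblasts with HSF1-driven luciferase reporter stressed by proteasome inhibitor MG132; luminescence from HSF1-driven luciferase expression after 8 hours of MG132 stress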
T2 sequence (P38532 whole entry): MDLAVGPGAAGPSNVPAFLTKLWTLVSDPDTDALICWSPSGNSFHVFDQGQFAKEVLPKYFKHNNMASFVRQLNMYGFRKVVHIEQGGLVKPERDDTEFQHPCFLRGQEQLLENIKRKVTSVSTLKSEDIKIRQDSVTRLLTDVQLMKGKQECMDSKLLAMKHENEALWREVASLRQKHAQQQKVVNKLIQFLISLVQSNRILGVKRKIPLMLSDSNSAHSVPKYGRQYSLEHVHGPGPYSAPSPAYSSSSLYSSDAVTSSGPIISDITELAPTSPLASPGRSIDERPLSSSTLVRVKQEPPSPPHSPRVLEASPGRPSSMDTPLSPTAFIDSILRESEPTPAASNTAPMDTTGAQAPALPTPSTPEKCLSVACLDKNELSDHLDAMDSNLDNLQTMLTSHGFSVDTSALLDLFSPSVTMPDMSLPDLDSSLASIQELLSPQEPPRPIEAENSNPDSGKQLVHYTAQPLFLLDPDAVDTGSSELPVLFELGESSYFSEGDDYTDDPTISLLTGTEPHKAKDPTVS

Cytochrome P450 3A4 = Cytochrome P450 3A4 (Homo sapiens, UniProt P08684);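 further: CYP3A4 tested as one member of a cytochrome P450 panel screen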
Cytochrome P450 3A4, sequence (P08684 whole entry): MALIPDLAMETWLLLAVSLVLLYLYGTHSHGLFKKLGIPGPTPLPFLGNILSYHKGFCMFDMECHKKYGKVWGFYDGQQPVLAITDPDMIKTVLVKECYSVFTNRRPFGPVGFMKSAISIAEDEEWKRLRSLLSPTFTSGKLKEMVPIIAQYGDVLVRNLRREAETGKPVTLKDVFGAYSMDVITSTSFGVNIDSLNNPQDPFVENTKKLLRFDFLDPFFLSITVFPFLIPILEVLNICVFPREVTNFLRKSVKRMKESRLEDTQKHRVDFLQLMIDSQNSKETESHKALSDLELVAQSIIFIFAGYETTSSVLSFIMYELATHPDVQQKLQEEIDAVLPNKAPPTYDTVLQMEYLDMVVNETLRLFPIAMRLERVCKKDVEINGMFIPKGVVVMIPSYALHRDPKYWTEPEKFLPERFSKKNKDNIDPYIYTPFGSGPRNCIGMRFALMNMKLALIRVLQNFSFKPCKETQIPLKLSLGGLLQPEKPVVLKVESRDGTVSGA

[3] = tested on: Streptococcus sp. 'group A'; experiment: growth inhibition of control SK(-) GAS strain, dose response, counter-screen for streptokinase expression inhibitor project, luminescence, kanamycin, BacTiterGlo, confirmation (AID 1900); assay type: functional, organism-based
Streptococcus = experiment: Group A Streptococcus viability loss, dose response, counter-screen for streptokinase expression inhibitor project, luminescence, BacTiterGlo (AID 1915); assay type: functional, organism-based;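 further: potency for reduction of bacterial viability or growth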
Streptokinase A = target: T3, Streptokinase A (Streptococcus pyogenes serotype M1, UniProt P10520); experiment: S. pyogenes streptokinase expression inhibitors, potency, dose response, plasminogen activation absorbance, OD405 (AID 1914); assay type: functional, Streptococcus pyogenes M1 GAS;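 further: secreted streptokinase activity via plasminogen activation per viability signal from cell pellet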
T3 sequence (P10520 whole entry): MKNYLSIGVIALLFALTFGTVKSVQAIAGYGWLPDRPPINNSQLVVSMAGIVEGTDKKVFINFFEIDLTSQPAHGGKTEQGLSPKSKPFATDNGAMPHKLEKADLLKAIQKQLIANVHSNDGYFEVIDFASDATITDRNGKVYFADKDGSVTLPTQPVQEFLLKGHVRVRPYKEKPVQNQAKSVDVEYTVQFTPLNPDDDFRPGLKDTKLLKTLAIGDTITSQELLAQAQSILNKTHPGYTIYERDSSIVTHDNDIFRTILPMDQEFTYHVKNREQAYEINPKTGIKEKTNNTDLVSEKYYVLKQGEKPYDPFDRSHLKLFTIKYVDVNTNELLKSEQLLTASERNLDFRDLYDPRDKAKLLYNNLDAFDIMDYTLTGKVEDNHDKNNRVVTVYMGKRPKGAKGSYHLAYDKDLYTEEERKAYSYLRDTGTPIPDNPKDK

INS1 = experiment: beta cell apoptosis inhibitors, cytokine rescue, dose response, luminescence, retest (AID 449756); assay type: functional, cell-based; details: Rattus norvegicus;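 further: cell death triggered by IL-1 beta plus TNF-alpha plus IFN-gamma mixture; protective hits raise ATP signal compared with cytokine alone wells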
Cytochrome P450 2C9 = Cytochrome P450 2C9 (Homo sapiens, UniProt P11712)
Cytochrome P450 2C9, sequence (P11712 whole entry): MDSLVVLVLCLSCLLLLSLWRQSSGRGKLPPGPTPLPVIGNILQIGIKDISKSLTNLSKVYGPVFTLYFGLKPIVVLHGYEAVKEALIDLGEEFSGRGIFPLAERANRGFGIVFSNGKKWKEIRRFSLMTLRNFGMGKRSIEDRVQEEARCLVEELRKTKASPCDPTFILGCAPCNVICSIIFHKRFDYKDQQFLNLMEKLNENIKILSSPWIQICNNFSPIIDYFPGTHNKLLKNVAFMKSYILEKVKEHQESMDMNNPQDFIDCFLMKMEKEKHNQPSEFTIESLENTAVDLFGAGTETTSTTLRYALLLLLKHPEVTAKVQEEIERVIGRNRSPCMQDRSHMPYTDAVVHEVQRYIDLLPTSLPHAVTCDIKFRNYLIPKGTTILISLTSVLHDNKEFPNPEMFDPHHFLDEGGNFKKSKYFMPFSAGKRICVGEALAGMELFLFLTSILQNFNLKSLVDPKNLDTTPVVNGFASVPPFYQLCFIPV

[4] = inhibitors of firefly luciferase expression or activity, dose response, H4 neuroglioma cells, luminescence (AID 1990); assay type: functional, cell-based
[5] = inhibitors of intracellular T. cruzi replication, confirmation, NIH3T3 host cells, beta-gal luminescence (AID 2044); assay type: functional, cell-based;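 further: intracellular parasites grown in NIH/3T3 mouse fibroblasts as host cells; luminescent beta-galactosidase reporter signal from transgenic T. cruzi replicating inside host cells; inhibitors lower the luminescence signal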
[6] = Luminescence Cell-Based Dose Response HTS to Identify Inhibitors of 5'UTR Stem-Loop Driven Prion Protein mRNA Translation in H4 Neuroglioblastoma Cells. [Related pubchem assays: 1827 (Project Summary), 1813 (Primary HTS)]; assay type: functional
[7] = inhibitors of SNCA 5'UTR-driven reporter translation, confirmation, H4 neuroglioma cells, luminescence (AID 1988); assay type: functional, cell-based
[8] = cytotoxicity toward NIH3T3 fibroblasts, dose response, counter-screen, cell-based, ATP luminescence, mouse fibroblasts (AID 2010); assay type: functional;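 further: cells exposed to compound for about 90 hours before reading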

Cc1cc(=O)oc2c(OS(C)(=O)=O)c(OS(C)(=O)=O)ccc12
AC50 (Cytochrome P450 1A2): 0.794 µM (inconclusive)

OCCCn1c(CCNc2nc(-c3ccc(Cl)cc3)cs2)nc2cc(C(F)(F)F)ccc21
AC50 [1]: 23.9 µM (active)

O=C(OC(C(=O)NCC1CCCO1)c1ccc(F)cc1)c1cccs1 (stereo not drawn)
EC50 [2]: > 195 µM (not active)

COc1ccccc1-c1nc(NCCNC(C)=O)c2ccccc2n1
AC50 (Cytochrome P450 1A2): 15.8 µM (inconclusive)

CC(=O)NCCNc1ccnc(-c2ccccc2C(F)(F)F)n1
AC50 (Cytochrome P450 3A4): 15.8 µM (inconclusive) | AC50 (Cytochrome P450 1A2): 15.8 µM (inconclusive)

CCOC(=O)c1ncn2c1CN(C)C(=O)c1cc(F)ccc1-2 [FLUMAZENIL]
AC50 (Cytochrome P450 1A2): 39.8 µM (inconclusive)

Cc1cccc(N2CC(=O)C(c3nc4ccccc4n3C)=C2N)c1
AC50 (Cytochrome P450 1A2): 14.1 µM (inconclusive)

NS(=O)(=O)c1ccc(N/N=C2/CCCCC2C2CCCCC2)c([N+](=O)[O-])c1 (stereo not drawn)
EC50 [3]: 3.34 µM (active) | EC50 (Streptococcus): 7.18 µM (active) | EC50 (Streptokinase A): 7.92 µM (inconclusive) | AC50 (INS1): 7.29 µM (active)

COc1ccc(S(=O)(=O)N2CCCN(CCC(=O)Nc3cccc(C(F)(F)F)c3)CC2)cc1
AC50 (Cytochrome P450 3A4): 39.8 µM (inconclusive) | AC50 (Cytochrome P450 1A2): 15.8 µM (inconclusive) | AC50 (Cytochrome P450 2C9): 39.8 µM (inconclusive)

CCNc1ncc2nc(CCc3ccccc3)c(=O)n(Cc3cccc(OC)c3)c2n1
AC50 (Cytochrome P450 1A2): 12.6 µM (inconclusive)

CCC(c1nnnn1CCc1ccccc1)N(Cc1ccco1)Cc1cc2c(C)ccc(C)c2nc1O (stereo not drawn)
EC50 [4]: > 120 µM (not active) | EC50 [5]: 1.41 µM (active) | EC50 [6]: > 120 µM (not active) | EC50 [7]: > 120 µM (not active) | EC50 [8]: > 60 µM (not active)

CC1(C)CC(=O)C(C(c2cccnc2)C2C(=O)CC(C)(C)CC2=O)C(=O)C1
EC50 [2]: > 195 µM (not active)

CCOC(=O)c1cc(CC)sc1NC(=O)CSc1nc2ccccc2c(=O)n1Cc1ccco1
EC50 [4]: > 120 µM (not active) | EC50 [6]: > 120 µM (not active) | EC50 [7]: 17.8 µM (active)

COc1ccc(C(O)c2nccn2Cc2ccccc2)cc1 (stereo not drawn)
AC50 (Cytochrome P450 1A2): 6.31 µM (inconclusive)

O=C(CN1CCN(c2ccc(O)cc2)CC1)Nc1cc(S(=O)(=O)N2CCCC2)ccc1Cl
EC50 [2]: > 195 µM (not active)

O=C(NC1CCCCC1)C1CCN(C(=O)c2ccc(-c3ccccc3)cc2)CC1
EC50 [4]: > 120 µM (not active) | EC50 [6]: > 120 µM (not active) | EC50 [7]: 77.5 µM (active)

COc1ccccc1-c1nnc(SCC(=O)N2CC(C)CC(C)C2)o1 (stereo not drawn)
EC50 [4]: > 120 µM (not active) | EC50 [6]: > 120 µM (not active) | EC50 [7]: > 120 µM (not active)

NC(=S)N/N=C/c1cc([N+](=O)[O-])ccc1OCCOc1ccccc1
EC50 [2]: 52.6 µM (active)

CCOC(=O)CCCNS(=O)(=O)c1c(C)ccc2nsnc12
EC50 [2]: 53.4 µM (active)

Cc1ccc(S(=O)(=O)N2CCCCC2c2cccnc2)c(C)c1C (stereo not drawn)
AC50 (INS1): 57.2 µM (active)

O=C1N=C(N2CCCC2)S/C1=C\C=C\c1ccccc1
EC50 [2]: < 0.16 µM (active)

CN1CCN(C(=O)O[C@@H]2c3nccnc3C(=O)N2c2ccc(Cl)cn2)CC1
AC50 (Cytochrome P450 1A2): 39.8 µM (inconclusive)

COc1ccc(-n2c(=O)c(-c3cccs3)nc3cnc(N4CCOCC4)nc32)cc1
AC50 (Cytochrome P450 3A4): 20 µM (inconclusive) | AC50 (Cytochrome P450 1A2): 12.6 µM (inconclusive) | AC50 (Cytochrome P450 2C9): 20 µM (inconclusive)

COC(=O)[C@H](CC(C)C)N(Cc1ccccc1)S(=O)(=O)N(Cc1ccc(OC)cc1)[C@@H](CC(C)C)C(=O)OC
AC50 (INS1): 5.77 µM (active)

CC(C)CNc1nc(N)c([N+](=O)[O-])c(NCC2CCCO2)n1 (stereo not drawn)
EC50 [4]: 13.5 µM (active) | EC50 [6]: 4.6 µM (active) | EC50 [7]: > 120 µM (not active)

CCOC(=O)c1ccc2ncc(C(C)=O)c(O)c2c1
EC50 [2]: > 195 µM (not active)

CCCCC(=O)Nc1ccc(C(=O)NCCc2ccc(S(N)(=O)=O)cc2)cc1
EC50 [2]: > 195 µM (not active)

C/C(=N\NC(=O)c1ccc(C)cc1)c1c(C)nn(-c2ccccc2)c1O
EC50 [3]: 3.96 µM (active) | EC50 (Streptococcus): 14.7 µM (active) | EC50 (Streptokinase A): > 150 µM (not active) | AC50 (INS1): 3.15 µM (active)

CCC(=O)Nc1cc(-c2nn(CC(=O)N3CCCCC3)c(=O)c3ccccc23)ccc1N1CCOCC1
EC50 [2]: > 195 µM (not active)

CC(=O)c1cccc(NC(=O)CSc2ccc(-c3ccccn3)nn2)c1
EC50 [4]: > 120 µM (not active) | EC50 [6]: 14.6 µM (active) | EC50 [7]: > 120 µM (not active)

CC(=O)N1CCN(C)CC1
AC50 (Cytochrome P450 1A2): 31.6 µM (inconclusive)

NC(CC(=O)Nc1ccc(F)cc1)=NO
EC50 [2]: > 195 µM (not active)

CN(C)C(=O)c1ccc(NC(=O)c2cccnc2)cc1
AC50 (INS1): 6.14 µM (active)

Cn1nnc2cc(C(=O)NC(C)(C)C)ccc21
EC50 [2]: 83.9 µM (active)

CCOC(=O)N/N=C\c1ccc(C)s1
EC50 [2]: > 195 µM (not active)

CC/C(NCc1cc(OC)cc(OC)c1)=C1/C(=O)NC(=O)N(C2CCCCC2)C1=O
EC50 [4]: 16 µM (active) | EC50 [6]: > 120 µM (not active) | EC50 [7]: 27.2 µM (active)

O=S(=O)(/N=C(/c1ccccc1Cl)N1CCOCC1)c1ccccc1
EC50 [2]: > 195 µM (not active)

O=[N+]([O-])c1ccccc1Nc1cccnc1
EC50 [2]: > 195 µM (not active)

CC(=O)N=C(Nc1ccc2ccccc2c1)Nc1nc(C)cc(C)n1
EC50 [2]: 146 µM (active)

CC1CC(C)CN(C(=O)c2ccc(CSc3nc4cc[nH]cc-4n3)cc2)C1 (stereo not drawn)
EC50 [2]: > 195 µM (not active)

O=C(CNS(=O)(=O)c1ccccc1F)Nc1ccc(N2CCOCC2)cc1
EC50 [2]: > 195 µM (not active)

c1nc(NCCc2c[nH]cn2)c2nc[nH]c2n1
AC50 (Cytochrome P450 3A4): 3.98 µM (inconclusive) | AC50 (Cytochrome P450 1A2): 5.01 µM (inconclusive)

C=CCn1c(CNc2ccccc2)nnc1SCC(=O)N/N=C/c1ccccc1O
EC50 [4]: 18.3 µM (active) | EC50 [6]: > 120 µM (not active) | EC50 [7]: > 120 µM (not active)
